The text below walks through data of patent publication US5556909A, “Substituted 2-arylcarbonyloxymethyl-1,2,5-thiadiazolidin-3-one 1,1-dioxide derivatives and compositions and method of use thereof” (Sanofi Winthrop Inc., priority 1994, dated 1996).

Structures can show the parent of a compound that is named as a salt.

This assay has as its target T1, human leukocyte elastase (Homo sapiens, UniProt P08246).
T1 sequence (P08246 30-267): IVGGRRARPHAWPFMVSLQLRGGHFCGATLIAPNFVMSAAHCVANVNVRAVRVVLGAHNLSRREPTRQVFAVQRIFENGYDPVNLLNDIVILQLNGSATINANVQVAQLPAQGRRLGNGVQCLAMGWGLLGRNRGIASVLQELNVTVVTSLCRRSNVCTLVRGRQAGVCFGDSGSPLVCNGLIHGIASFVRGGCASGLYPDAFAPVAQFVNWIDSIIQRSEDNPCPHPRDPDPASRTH
As to the kind of experiment: Human leukocyte elastase inhibitory activity (substrate MeOSuc-Ala-Ala-Pro-Val-pNA, microtiter plate progress curves). The conditions noted are these: HLE, pH 7.8, 25° C., 500 mM NaCl. It counts as biochemical. Here is the method:
The test compound (inhibitor) is dissolved in DMSO in a vial to produce an inhibitor stock solution which has a concentration in the range of 200-1000 μM. The inhibitor stock solution is diluted (1:4, 1:16 and 1:64) into assay vials (vials 1, 2 and 3 respectively) containing 2.4 mL of buffer solution (50 mM N- [2-hydroxyethyl ] piperazine-N'-[2-ethanesulfonic acid]/NaOH, 500 mM NaCl, pH 7.8 at 25° C.) and DMSO is added so that the total volume in each vial is 3.2 mL. 70 μL, 50 μL, 35 μL and 25 μL of inhibitor from assay vial 1 is placed into the first four wells of a 96-well microtiter plate and each well is made up to 90 μL total volume with the addition of a 25% DMSO/buffer solution. The inhibitor from assay vials 2 and 3 is processed in a similar manner and placed in wells 5-12 respectively to afford a total of 12 different inhibitor concentrations. Four wells (wells 13-16) containing 90 μL of the 25% DMSO/buffer solution but no inhibitor are also run simultaneously with the inhibited wells as a control. 150 μL of substrate solution (prepared by the addition of 500 μL of the human leukocyte elastase (HLE) substrate MeOSuc-Ala-Ala-Pro-Val-pNA (18.7 mM in DMSO) to 19.5 mL of buffer solution) is then added simultaneously into each of the 16 wells and the solution in each well was thoroughly mixed.
The 96-well microtiter plate is placed into a Microplate Reader #89815A spectrophotometer and 110 μL of the enzyme solution (prepared as follows: a mixture of 20 mL of buffer solution and 20 mg of bovine serum albumen is gently vortexed in a scintillation vial and 5 μL HLE stock solution (1 mg/mL dissolved in deionized water) is added) is added simultaneously to each of the 16 wells. Each of the solutions in the wells is throughly mixed and then the time-dependent absorbance data is collected at an absorbance of 410 nm until the assay is complete. It should be noted that although this assay method can be done manually, it is preferred to perform the assay robotically using a Hewlett Packard MicroAssay System Robot.
A plot of the absorbance versus time data thus obtained affords progress curves the final slope of which is equal to the final steady-state velocities (VF). Using the program ENZFITTER (Elsevier software), the progress curves for the four control assays ([I]=0) are fit by linear regression to yield the enzyme reaction velocity values in the absences of inhibitor (Vo) which are averaged to produce a single fixed value. The inhibition constant Ki (nM) is then obtained from a plot of [formula] which affords a linear plot wherein: [formula] and [S] is the concentration of the substrate and Km is the Michaelis constant.
Table II summarizes the results obtained from the testing of representative compounds of the invention for human leukocyte elastase inhibitory activity.

On to `CCCC1NS(=O)(=O)N(COC(=O)c2c(Cl)cccc2Cl)C1=O` (stereo not shown) [1(f), 2-(2,6-dichlorophenylcarbonyloxymethyl)-4-propyl-1,2,5-thiadiazolidin-3-one 1,1-dioxide], for which the Ki came out at 12 nM.
For `CC(C)C1NS(=O)(=O)N(COC(=O)c2c(Cl)cccc2Cl)C1=O` (stereo not shown) [2(f), 2-(2,6-dichlorophenylcarbonyloxymethyl)-4-isopropyl-1,2,5-thiadiazolidin-3-one 1,1-dioxide] the value was 350 nM.
In the case of `CCCC1C(=O)N(COC(=O)c2c(Cl)cccc2Cl)S(=O)(=O)N1C` (stereo not shown) [3(i), 2-(2,6-dichlorophenylcarbonyloxy-methyl)-4-propyl-5-methyl-1,2,5-thiadiazolidin-3-one 1,1-dioxide] it was 0.11 nM; in that of `CC(C)C1C(=O)N(COC(=O)c2c(Cl)cccc2Cl)S(=O)(=O)N1C` (stereo not shown) [4(f), 2-(2,6-dichlorophenylcarbonyloxymethyl)-4-isopropyl-5-methyl-1,2,5-thiadiazolidin-3-one 1,1-dioxide], 25 nM; in that of `CCCC1C(=O)N(COC(=O)c2c(Cl)cccc2Cl)S(=O)(=O)N1CC` (stereo not shown) [5(e), 2-(2,6-dichloro-phenylcarbonyloxymethyl)-4-propyl-5-ethyl-1,2,5-thiadiazolidin-3-one 1,1-dioxide], 0.5 nM.
For `CCCC1(C)C(=O)N(COC(=O)c2c(Cl)cccc2Cl)S(=O)(=O)N1C` (stereo not shown) [6(k), 2-(2,6-dichlorophenylcarbonyloxymethyl)-4-methyl-4-propyl-5-methyl-1,2,5-thiadiazolidin-3-one 1,1-dioxide] the value was 120 nM; for `CN1C(CCC(C)(C)Cl)C(=O)N(COC(=O)c2c(Cl)cccc2Cl)S1(=O)=O` (stereo not shown) [7(h), 2-(2,6-dichlorophenylcarbonyloxymethyl) -4-(3-methyl-3-chlorobutyl)-5-methyl-1,2,5-thiadiazolidin-3-one 1,1-dioxide], 4.4 nM.
The compound `CC(C)CCC1C(=O)N(COC(=O)c2c(Cl)cccc2Cl)S(=O)(=O)N1C` (stereo not shown) [8(i)] gave a Ki of 0.06 nM.
`CC(C)CCC1C(=O)N(COC(=O)c2c(Cl)ccc(OCCN3CCCC3)c2Cl)S(=O)(=O)N1C` (stereo not shown) [9(c), 2-(2,6-dichloro-3-(2-pyrrolidinoethoxy)phenylcarbonyloxymethyl)-4-(3-methylbutyl)-5-methyl-1,2,5-thiadiazolidin-3-one 1,1-dioxide hydrochloride] came in with a Ki of 0.26 nM.
In the case of `CC(C)CCC1C(=O)N(COC(=O)c2c(Cl)ccc(OCCN3CCOCC3)c2Cl)S(=O)(=O)N1C` (stereo not shown) [10(b), 2-(2,6-dichloro-3-[2-(4-morpholino)ethoxy]phenyl-carbonyloxymethyl)-4-(3-methylbutyl)-5-methyl-1,2,5-thiadiazolidin-3-one 1,1-dioxide] it was 0.2 nM.
The compound `CN1C(Cc2ccccc2)C(=O)N(COC(=O)c2c(Cl)cccc2Cl)S1(=O)=O` (stereo not shown) [11(g), 2-(2,6-dichloro-phenylcarbonyloxymethyl)-4-phenylmethyl-5-methyl-1,2,5-thiadiazolidin-3-one 1,1-dioxide] showed an inhibitory constant (Ki) of 0.62 nM. Against the preceding compound, the Ki is about 3.1-fold higher.
`O=C(OCN1C(=O)C2CCCCN2S1(=O)=O)c1c(Cl)cccc1Cl` (stereo not shown) [13(f), 2-(2,6-dichlorophenylcarbonyloxymethyl)-1,2,5-thiadiazolo [2,3-a]3,3a,4,5,6,7-hexahydropyridine-3-one 1:1-dioxide]: the Ki is 22 nM.
`O=C(OCN1C(=O)C2CCCN2S1(=O)=O)c1c(Cl)cccc1Cl` (stereo not shown) [14(f), 2-(2,6-dichlorophenylcarbonyloxymethyl) tetrahydropyrrolo[1,2-b]-1,2,5-thiadiazol-3(2H)-one 1,1-dioxide]: the Ki turned out to be 170 nM.
For `O=C(OCN1C(=O)C2C3CCC(C3)N2S1(=O)=O)c1c(Cl)cccc1Cl` (stereo not shown) [15(i)] the value was 3700 nM; for `CCCC1CCCN2C1C(=O)N(COC(=O)c1c(Cl)cccc1Cl)S2(=O)=O` (stereo not shown) [16(j), 2-(2,6-dichlorophenylcarbonyloxymethyl)-4-propyl-1,2,5-thiadiazolo [2,3-a]3,3a, 4,5,6,7-hexahydropyridine-3-one 1,1-dioxide], 9.6 nM; for `CCCC1C(=O)N(COC(=O)c2c(Cl)ccc(OCCN3CCOCC3)c2Cl)S(=O)(=O)N1CC` (stereo not shown) [Example 12, 2-(2,6-dichloro-3-[2-(4-morpholino]ethoxy]-phenylcarbonyloxymethyl)-4-propyl-5-ethyl-1,2,5-thiadiazolidin-3-one 1,1-dioxide methanesulfonate], 0.45 nM.
